By EC50 is commonly meant the midpoint of the concentration-response curve. High values mean lower potency in that assay, low ones higher potency in that assay.

The record followed here is US9023852B2, “1, 2, 4-thiadiazol-5-ylpiperazine derivatives useful in the treatment of neurodegenerative diseases” (Remynd NV, priority 2011, dated 2015).

The test relates to M17—3TAU(P301L) cells. In words: Neuroblastoma tauopathy model: inhibition of TAU-induced cytotoxicity (LDH). Particulars: Homo sapiens, 168 h; inhibition of TAU-induced toxicity (LDH), 7 days differentiation with retinoic acid. The test is classed as cell-based. An excerpt:
A TAU expression plasmid was constructed by sub-cloning the cDNA encoding for human TAU-P301L protein, wherein proline at position 301 is substituted by a leucine residue, into mammalian expression vector pcDNA3.1 resulting in the plasmid pcDNA3.1-TAUP301L. Plasmids pcDNA3.1 and pcDNA3.1-TAU P301L were transfected into human neuroblastoma cells (BE-M17; ATCC No. CRL-2267™) using lipofectamine reagent and subsequently, independent clonal cell lines with the plasmids stably integrated into the genome were selected by antibiotic resistance selection (Geneticin (G418)), resulting in cell lines M17.pcDNA3 and M17—3TAUP301L. Expression of the TAUP301L gene in the M17—3TAUP301L cells was confirmed by Western blot analysis.
Differentiation of the cells with RA leads to phosphorylation and subsequent aggregation of TAU, inducing a tauopathy in these cells. Cytotoxicity of cells was measured by quantification of lactate dehydrogenase (LDH) levels. In dead cells LDH is leaked out of the cells into the medium due to a loss of plasma-membrane integrity.
Briefly, 3 days preceding the experiment pre-cultures of M17.pcDNA3 and M17—3TAU(P301L) cells were prepared, starting from a stock culture, at a density of 50.000-100.000 cells/cm2 in detection medium (Optimem Reduced Serum without phenol red (Gibco, Cat. 31985-047) supplemented with 1% fetal calf serum (FCS), 1 mM sodium pyruvate, 1× non-essential amino acids (NEAA), 500 μg/ml G418 and 0.5× antibiotic/antimycotic (ABAM)). At the day of the experiment these precultures were diluted to ˜0, 1.106 cells/ml in detection medium without FCS and 60 μL of this suspension is dispensed per well into a 96-well microtiter plate. After 3 hours of incubation at 37° C./5% CO2 an equal volume of detection medium containing 2.5 μM RA was added and subsequently incubated for 7 days at 37° C./5% CO2. After 7 days, LDH activity was determined using the Promega Cytotox 96 Non-Radioactive cytotoxicity assay (Cat. G1780), according the manufacturer's instructions. Cytotoxicity is measured as the ratio of LDH increase in the supernatant divided by the LDH increase in the total cell suspension (sum of the LDH measured in cells and supernatant).
The M17—3TAU(P301L) cell line makes it possible to assess the ability of novel compounds to inhibit TAU-induced cytotoxicity. […] Compounds were tested for their ability to hamper TAU-induced toxicity at different concentrations, ranging from low non-effective concentrations to high potent concentrations. Afterwards, the dose-dependent inhibition curve was used to calculate their EC50 (Table 1).
Take `COc1ccc(CCN2CCN(c3nc(-c4ccc(Cl)cc4F)ns3)CC2)cc1` [Example 56, 1-[3-(4-Chloro-2-fluoro-phenyl)-[1,2,4]thiadiazol-5-yl]-4-[2-(4-methoxy-phenyl)-ethyl]-piperazine]: the EC50 was found to be 5.5 nM.
Consider `COc1ccc(C(C)CN2CCN(c3nc(-c4ccc(Cl)cc4)ns3)CC2)cc1` (stereo not drawn) [Example 72, 1-[3-(4-Chloro-phenyl)-[1,2,4]thiadiazol-5-yl]-4-[2-(4-methoxy-phenyl)-propyl]-piperazine], for which a half-maximal response (EC50) required 94.3 nM.
Under `COc1cc(CCN2CCN(c3nc(-c4cncc(Cl)c4)ns3)CC2)ccn1` [Example 133, 1-[3-(5-Chloro-pyridin-3-yl)-[1,2,4]thiadiazol-5-yl]-4-[2-(2-methoxy-pyridin-4-yl)-ethyl]-piperazine] stands 1.4 nM.
`Clc1ccc(CCN2CCN(c3nc(-c4ccnc(Cl)c4)ns3)CC2)cc1` [Example 169, 5-(4-(4-chlorophenethyl)piperazin-1-yl)-3-(2-chloropyridin-4-yl)-1,2,4-thiadiazole]: the EC50 came out at 10.4 nM.
`FC(F)Oc1ccc(CCN2CCN(c3nc(-c4ccc(Cl)cc4)ns3)CC2)cc1` [Example 70, 1-[3-(4-Chloro-phenyl)-[1,2,4]thiadiazol-5-yl]-4-[2-(4-difluoromethoxy-phenyl)-ethyl]-piperazine] yielded an EC50 of 194 nM.
Consider `COc1cc(CCN2CCN(c3nc(-c4cnc(C)nc4)ns3)CC2)ccn1` [Example 183, 5-(4-(2-(2-methoxypyridin-4-yl)ethyl)piperazin-1-yl)-3-(2-methylpyrimidin-5-yl)-1,2,4-thiadiazole], for which the EC50 came to 152 nM.
To `Fc1ccc(CCN2CCN(c3nc(-c4cccc(Cl)c4)ns3)CC2)cc1F` [Example 135, 1-[3-(3-Chloro-phenyl)-[1,2,4]thiadiazol-5-yl]-4-[2-(3,4-difluoro-phenyl)-ethyl]-piperazine] belongs 4.5 nM; to `Fc1ccc(CCN2CCN(c3nc(-c4ccc(Cl)cn4)ns3)CC2)cc1F` [Example 139, 1-[3-(5-Chloro-pyridin-2-yl)-[1,2,4]thiadiazol-5-yl]-4-[2-(3,4-difluoro-phenyl)-ethyl]-piperazine], 47.2 nM.
With `Clc1ccnc(-c2nsc(N3CCN(CCc4ccccc4)CC3)n2)c1` [Example 120, 1-[3-(4-Chloro-pyridin-2-yl)-[1,2,4]thiadiazol-5-yl]-4-phenethyl-piperazine], the EC50 came out at 16.1 nM.
To `Clc1cncc(-c2nsc(N3CCN(CCN4CCCCC4)CC3)n2)c1` [Example 163, 3-(5-chloropyridin-3-yl)-5-(4-(2-(piperidin-1-yl)ethyl)piperazin-1-yl)-1,2,4-thiadiazole] belongs 13 nM; to `COc1cccc(CCN2CCN(c3nc(-c4ccc(OC(F)(F)F)cc4)ns3)CC2)c1` [Example 36, 1-[2-(3-Methoxy-phenyl)-ethyl]-4-[3-(4-trifluoromethoxy-phenyl)-[1,2,4]thiadiazol-5-yl]-piperazine], 119 nM.
For the compound `Cc1ccc(-c2nsc(N3CCN(CCc4ccc(F)c(F)c4)CC3)n2)cn1` [Example 148, 1-[2-(3,4-Difluoro-phenyl)-ethyl]-4-[3-(6-methyl-pyridin-3-yl)-[1,2,4]thiadiazol-5-yl]-piperazine], the EC50 came out at 67.5 nM.
In turn, `Cc1ncc(-c2nsc(N3CCN(CCc4ccc(F)c(F)c4)CC3)n2)cn1` [Example 182, 5-(4-(3,4-difluorophenethyl)piperazin-1-yl)-3-(2-methylpyrimidin-5-yl)-1,2,4-thiadiazole] returned an EC50 of 192 nM.
`Fc1ccc(CCN2CCN(c3nc(-c4cccc(Cl)c4)ns3)CC2)cc1` [Example 85, 1-[3-(3-Chloro-phenyl)-[1,2,4]thiadiazol-5-yl]-4-[2-(4-fluoro-phenyl)-ethyl]-piperazine]: the midpoint of the response, the EC50, lay at 3.1 nM.
Compound `COc1ccc(CCN2CCN(c3nc(-c4cc(Cl)ccn4)ns3)CC2)cc1` [Example 125, 1-[3-(4-Chloro-pyridin-2-yl)-[1,2,4]thiadiazol-5-yl]-4-[2-(4-methoxy-phenyl)-ethyl]-piperazine] registered an EC50 of 3 nM.
